This note sets out measurements from PMC3885398, “Evaluation of the Antitumor Effects of BPR1J-340, a Potent and Selective FLT3 Inhibitor, Alone or in Combination with an HDAC Inhibitor, Vorinostat, in AML Cancer” (PLoS ONE, 2014).

One may read the IC50 as the concentration needed to halve the response being measured. Low readings indicate higher potency, high ones lower potency. In general, clearance refers to the volume of plasma or blood freed of the substance per unit of time. The low end stands for a low capacity for elimination, the high end for a high capacity for elimination. What is called half-life is the time needed for the level to fall by half in the phase considered. The low end stands for rapid decline, the high end for slow decline.

The structures appear in SMILES notation. Several values for one entry are separate records, joined by “and”; a condition that tells them apart may be missing. Identical values can stand only once.

The target of one series is FLT3-ITD (Homo sapiens, UniProt P36888). Briefly: FLT3 phosphorylation in MV4;11 cells, Western blot. It counts as cell-based. The following applies: 1 hour. Here is the method:
Cells were lysed in lysis buffer (50 mM Tris, pH 8.0, 150 mM NaCl, 1% Triton X-100, 0.5% sodium deoxycholate, 0.1% SDS, 1 mM sodium orthovanadate, 1 mM PMSF, and 1 mM DTT). Protein lysates were resolved by SDS-PAGE and transferred onto a polyvinylidene difluoride (PVDF) membrane (Millipore, Bedford, MA, USA). The membranes were immunoblotted with appropriate antibodies and detected using the SuperSignal reagent (Pierce, Rockford, IL, USA) followed by exposure to X-ray film.
To address whether BPR1J-340 was able to inhibit the FLT3 signaling pathway in FLT3-driven cells, MV4;11 cells were treated with different concentrations of BPR1J-340 for 1 hour, and the phosphorylation status of FLT3 and STAT5 (Signal Transducer and Activator of Transcription 5), a critical down-stream modulator that plays a major role in FLT3-ITD signal transduction for cell expansion and survival, was examined by Western blot analysis. […] To investigate the difference in sensitivity between FLT3-WT and the activating mutants FLT3-ITD and FLT3-D835Y to BPR1J-340, HEK293T cells engineered to express FLT3-WT or mutants FLT3 (FLT3-ITD, FLT3-D835Y) were analyzed. […]
Figure 2 BPR1J-340 inhibits FLT3-dependent signaling. […] The phosphorylation status of FLT3 and STAT5 were evaluated by Western blot analysis. […] The FLT3 phosphorylation status in the transfected cells was evaluated by Western blot analysis.

The nature of series [1]: Pharmacokinetic analysis in rats. Type of series: in vivo, Sprague-Dawley rats. Here is the method:
The uses of animals were approved by The Institutional Care and Use Committee of the National Health Research Institutes. Briefly, male Sprague-Dawley rats weighing 300–400 g each were obtained from BioLASCO, Taiwan Co., Ltd., Ilan, Taiwan. One day prior dosing, rats were surgically prepared with a jugular-vein cannula and fasted overnight (∼18–20 hr). Water was available ad libitum. Food was provided at 4 hours after dosing. Single 1.5 mg/kg intravenous dose of BPR1J-340, as a PEG400/water (80/20, v/v) solution, was separately administered to groups of 3 rats each via the jugular-vein cannula. At 0 (prior to dosing), 2, 5, 15 and 30 min. and at 1, 2, 4, 6, 8 and 24 hr after dosing, a blood sample was collected. Plasma was separated from the blood by centrifugation (14,000 g for 15 min at 4°C in a Beckman Model AllegraTM 6R centrifuge) and stored in a freezer (−20°C) until analysis. All plasma samples were analyzed by LC-MS/MS. Plasma concentration data were analyzed with non-compartmental method for pharmacokinetic determination.

Chain of FLT3-ITD (P36888 27-993, change not shown): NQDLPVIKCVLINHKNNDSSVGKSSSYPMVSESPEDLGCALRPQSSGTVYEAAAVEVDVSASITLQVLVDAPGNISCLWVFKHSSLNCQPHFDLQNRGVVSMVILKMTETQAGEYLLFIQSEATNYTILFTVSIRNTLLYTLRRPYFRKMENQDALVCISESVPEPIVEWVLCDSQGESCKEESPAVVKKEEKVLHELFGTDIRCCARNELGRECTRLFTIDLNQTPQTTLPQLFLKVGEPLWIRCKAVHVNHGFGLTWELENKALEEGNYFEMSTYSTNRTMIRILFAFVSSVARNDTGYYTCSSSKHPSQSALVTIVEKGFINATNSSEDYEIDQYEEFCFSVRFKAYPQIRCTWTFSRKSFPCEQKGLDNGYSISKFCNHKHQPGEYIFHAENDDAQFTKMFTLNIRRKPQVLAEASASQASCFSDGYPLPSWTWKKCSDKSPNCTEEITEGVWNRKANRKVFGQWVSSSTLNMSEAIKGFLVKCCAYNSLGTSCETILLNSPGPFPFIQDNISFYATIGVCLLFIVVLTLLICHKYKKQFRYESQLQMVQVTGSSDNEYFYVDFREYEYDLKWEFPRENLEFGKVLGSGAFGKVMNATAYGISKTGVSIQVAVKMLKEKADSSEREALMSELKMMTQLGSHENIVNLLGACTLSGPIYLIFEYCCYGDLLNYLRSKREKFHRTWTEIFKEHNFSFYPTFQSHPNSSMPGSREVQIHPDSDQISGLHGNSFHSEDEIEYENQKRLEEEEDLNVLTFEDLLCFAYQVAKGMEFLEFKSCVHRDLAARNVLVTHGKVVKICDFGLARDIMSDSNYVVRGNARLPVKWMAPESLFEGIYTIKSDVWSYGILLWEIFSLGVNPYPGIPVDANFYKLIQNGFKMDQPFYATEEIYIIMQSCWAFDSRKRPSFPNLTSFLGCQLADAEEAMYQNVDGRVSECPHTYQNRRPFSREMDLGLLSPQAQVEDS

Consider `CCc1cc(NC(=O)NCc2ccc(-c3cc(NC(=O)c4ccc(CN5CCN(C)CC5)cc4)[nH]n3)cc2)no1` [BPR1J-340, N1-(3-4-[([(5-ethyl-3-isoxazolyl)amino]carbonylamino)methyl]phenyl-1H-5-pyrazolyl)-4-[(4-methylpiperazino)methyl]benzamide], for which the IC50 against FLT3-ITD was ~1 nM. In addition, the maximum plasma concentration in series [1] (Rat IV 1.5 mg/kg, at 2 min after dosing, 1.5 mg/kg) was 7.9 µM and 4,296 ng/mL. The “plasma concentration maintained for 6 hours” value in series [1] (Rat IV 1.5 mg/kg, for 6 hours) is on record as “exceeded 80 ng/mL”. Also, the T1/2 in series [1] (Rat IV, dose 1.5 mg/kg, listed as BRP1J-340, 1.5 mg/kg) came out at 8.8 ± 0.6 h. Besides, in series [1] (Rat, single 1.5 mg/kg), the “maximum achievable plasma concentration above the IC50 for FLT3-ITD inhibition” value is “more than 272 fold”. The concentration at 24 h in series [1] (male, Sprague-Dawley, plasma, Rat IV 1.5 mg/kg, 24 hour after dosing, read-out: plasma concentration C24 hour) is 9.9 ng/mL and 18 nM. This molecule returned a clearance in series [1] (male, Sprague-Dawley, plasma, Rat IV, dose 1.5 mg/kg) of 20.4 ± 5.2 mL/min/kg. For the same molecule, the AUC(0-t) in series [1] (male, Sprague-Dawley, plasma, Rat IV, dose 1.5 mg/kg, read-out: AUC(0–24)) was 1130 ± 260 ng·h/mL. Besides, the Vd in series [1] (male, Sprague-Dawley, plasma, Rat IV, dose 1.5 mg/kg, read-out: Vss) came to 10.3 ± 2.5 L/kg. Moreover, in series [1] (male, Sprague-Dawley, rat, plasma, iv, 1.5 mg/kg, Rat IV), the half-life was ~8.8 h.
